Measured values: paper PMC10034064, “Expanding the apelin receptor pharmacological toolbox using novel fluorescent ligands” (Frontiers in Endocrinology, 2023)
Bridge positions count the residues as written; N and C are the ends. Peptide text beside a SMILES is read from it.

How the values were obtained:
apelin receptor [1] = biological target: T1, apelin receptor (Homo sapiens, UniProt P35414); assay: Fluorescent ligand binding (saturation, specificity, competition) in CHO-APLNR cells by high content imaging; design: host or cells: CHO-K1
T1 sequence (P35414 1-380): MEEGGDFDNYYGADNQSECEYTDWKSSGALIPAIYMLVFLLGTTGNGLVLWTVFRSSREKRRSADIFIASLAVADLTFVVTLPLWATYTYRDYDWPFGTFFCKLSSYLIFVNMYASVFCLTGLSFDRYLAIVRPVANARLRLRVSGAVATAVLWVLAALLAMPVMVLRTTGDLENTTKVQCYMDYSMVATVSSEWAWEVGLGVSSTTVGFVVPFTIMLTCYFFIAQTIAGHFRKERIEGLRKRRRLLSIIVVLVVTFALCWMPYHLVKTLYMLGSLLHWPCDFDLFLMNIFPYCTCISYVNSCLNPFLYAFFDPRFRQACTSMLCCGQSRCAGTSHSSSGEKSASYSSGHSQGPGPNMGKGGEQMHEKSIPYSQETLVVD
Experimental: (§1) Cells were seeded in CellCarrier-96 Ultra Plates at a density of ~10 k/well. […] For time-course experiments, CHO-APLNR were treated with 300 nM of the fluorescent ligand for 0 – 90 mins, in the dark at room temperature. For saturation binding experiments, CHO-APLNR were treated with a concentration range of 1 – 300 nM of the fluorescent ligand for 90 mins, in the dark at room temperature. […] Untransfected CHO-K1 cells were also used as controls. […] At the end-points, CHO-APLNR were washed with HBSS before fixation with 4% formaldehyde. CHO-APLNR were washed with HBSS before treatment with Hoechst 33342 nuclear marker prepared at 10 µg/mL in HBSS for 15 mins. […] The software was also used to calculate binding affinities (Ki values) of competing ligands using the Cheng-Prusoff equation.
(§2) For imaging studies, cells in CellCarrier-96 Ultra Plates (PerkinElmer) were imaged using a 40x/NA1.1 water immersion objective. The device was set to measure an image field within each well, where the field is made up of a 4 x 4 or 5 x 5 grid of imaging regions (where each region is 250 x 250 μm in area). After using Z stacking to find an appropriate focal plane, cells were visualised and imaged at a focal depth of 0.5 μm above the bottom of the plate in all experiments. […]
(§3) Following image acquisition, several cell parameters were quantified using in-built Harmony High Content Imaging and Analysis Software (PerkinElmer). […] Intracellular fluorescence was calculated as fluorescence identified in the membrane collar subtracted from whole cell fluorescence. Mean fluorescence intensities were calculated for membrane and whole cell compartments in observed cells in the selected population, given as fluorescence units provided by Harmony software.

apelin receptor [2] = biological target: T1, apelin receptor; assay: Dynamic mass redistribution assay in CHO-APLNR cells; format: cell-based; design: host or cells: CHO-K1; details: maximal change in peak wavelength value from baseline, n = 3
Experimental: Apelin receptor downstream signalling was determined using an in vitro BIND technology dynamic mass redistribution assay (SRU Biosystems). CHO-APLNR cells were seeded in 96-well biosensor plates (SRU Biosystems) at a density of 50K/well, maintained in 95 µL feeding media, and incubated for 24 h at 37°C, 5% CO2, humidified. The following day, the plate was loaded onto the SRU Biosystems BIND PROFILER TURBO reader, and left to acclimatise to room temperature for 20 mins before a baseline read was taken over 10 mins. To test novel fluorescent compounds for agonist activity, cells were treated with test compounds (5 µL additions in PBS) over a concentration range to generate an 8-point concentration-response curve. The biosensor plate was read for a subsequent 60 mins. Responses, measured in maximal change in peak wavelength value from baseline (ΔPWV), were fitted to four parameter logistic concentration response curves in GraphPad Prism version 6.07 for Windows (GraphPad Software) to determine compound concentrations inducing half maximal response (EC50), and pD2 values (-log10 EC50) were calculated.

apelin receptor [3] = biological target: T1, apelin receptor; assay: Radioligand competition binding against [125I]-apelin-13 in human left ventricle homogenate; design: Surgical samples of human left ventricle (HLV) tissue were obtained with informed consent; from tissue; host or cells: human left ventricle homogenate; details: apelin ligands vs [Pyr1]apelin-13; ELA ligands vs ELA-14
Experimental: Surgical samples of human left ventricle (HLV) tissue were obtained with informed consent and ethical approval (05/Q104/142). Tissues were snap frozen in liquid nitrogen before storage at -80°C. On the day of preparation, tissue was chopped finely with a razor blade on ice, before subsequent homogenisation using a Polytron Homogenizer (Thomas Scientific), in homogenisation buffer (50 mM Tris-HCl, 5 mM MgCl2, 5 mM EDTA, 1 mM EGTA, 1:500 protease inhibitor cocktail containing aprotinin and amastatin, balanced at pH 7.4) at 4°C. The resulting homogenate was subsequently spun at 1000 xg for 2 mins at 4°C. Supernatant was transferred to another set of tubes (pellet discarded) for a high speed spin at 40,000 xg, for 30 mins at 4°C. Supernatant was then discarded, and the remaining pellet resuspended in 2.5 mL/g of homogenisation buffer, before a second high speed spin at 40,000 xg, for 30 mins at 4°C. The supernatant was discarded, and the remaining pellet was resuspended in HEPES buffer (50 mM HEPES, balanced at pH 7.4 at room temperature) and stored in the freezer at -70°C until use in assays.
The radiolabel has a specific activity of 2200 Ci/mmol. […]
Total binding was determined in the absence of competing fluorescent ligand. […] Radioactivity in pellets was counted using a Cobra II model 5003 gamma counter (Packard). […]

apelin receptor [4] = biological target: T1, apelin receptor; assay: Fluorescent ligand binding in human kidney tissue sections
Experimental: Frozen human kidney tissue sections (10 µm), were cut using a cryostat onto microscopy slides. […] Slides were washed with HBSS before fixation with 4% formaldehyde for 3 mins.
Automated fluorescent images (16 bit, 0.325 x 0.325 μm scaling per pixel) of fixed and mounted human tissue stained with fluorescent markers were acquired using an Axio Scan Z1 slide scanner (Zeiss) slide scanner with a Plan-Apochromat 20x/NA0.8 M27 objective lens connected to a Hamamatsu Orca Flash camera. An initial brightfield scan was performed to visualise tissue on slides, and a spline contour tool was used to outline the tissue to minimise the total region imaged. A profile with three fluorescent channels was used; a first channel (blue), with an LED-Module 385 nm light source set at 10% intensity and 10 ms exposure time at a depth of focus of 1.45 μm for Hoechst 33342 nuclear marker (405 nm wavelength); a second channel (green), with an LED-Module 475 nm light source set at 80% intensity and 30 ms exposure time at a depth of focus of 1.64 μm for 488 nm wavelengths; and a third channel (yellow/orange), an LED-Module 567 nm light source set at 80% intensity and 30 ms exposure time at a depth of focus of 1.88 μm for 555 nm wavelengths. Focal depths were determined by the slide scanner’s in-built Z stacking autofocusing. All acquired images were saved and visualised using ZEN software (Zeiss) and/or Orbit Image Analysis (ORBIT) software. Regions of interest were identified using the spline contour, and mean fluorescent signal (in grayscales) was provided by ZEN software (Zeiss).

[5] = biological target: T2, human apelin receptor (AGTRL1) (Homo sapiens, UniProt P35414); assay: PathHunter GPCR internalisation assay in U2OS cells; format: cell-based; details: U2OS cells overexpressing human apelin receptor, 90 mins, n = 3
T2 construct: host or cells: U2OS
T2 sequence (P35414 1-380): T1 sequence (P35414 1-380)
Experimental: Internalisation of apelin receptor following ligand treatment was determined using an in vitro PathHunter GPCR Internalisation Assay (Eurofins). The manufacturer’s protocol was modified in accordance with previous in-house optimisation. All reagents were provided in the assay kit. U2OS cells overexpressing human apelin receptor (AGTRL1) were seeded in cell plating reagent into 96-well plates and incubated for 48 h at 37°C, 5% CO2, humidified. To test novel fluorescent compounds for agonist activity, wells were treated with test compounds over a concentration range in Cell Plating Reagent to generate an 8-point concentration-response curve. Cells were then incubated for 90 mins at 37°C, 5% CO2, humidified before treatment with Working Detection Solution (Cell Assay Buffer, Substrate Reagent 1, Substrate Reagent 2), and incubation for 2 h at room temperature, protected from light. Plates were read in a chemiluminescence detecting LumiLITE Microplate Reader (DiscoveRx, Fremont, CA, USA). Responses, measured in Relative Light Units (RLU), were fitted to four parameter logistic concentration response curves in GraphPad Prism version 6.07 for Windows (GraphPad Software) to determine compound concentrations inducing half maximal response (EC50), and pD2 values (-log10 EC50) were calculated.

apelin receptor [6] = assay: Fluorescent ligand binding (saturation, specificity, competition) in CHO-APLNR cells by high content imaging; details: 300 nM apelin647, wild-type CHO-K1 cells without apelin receptor
Experimental: as §1, §2, §3

[7] = 1 µM fluorescent ligand alone, human kidney sections, 30 mins
[8] = 1 µM fluorescent ligand plus 10 µM [Pyr1]apelin-13 (apelin488) or ELA-14 (ELA488)

CCC(CC)n1c(Cc2cccs2)nc2cc(C(=O)N[C@H](CC(=O)O)CC(C)C)ccc21 [CMF-019]
pKi (apelin receptor [1]): 5.91

CSCC[C@H](NC(=O)[C@H](CS)NC(=O)[C@H](CCCNC(=N)N)NC(=O)[C@H](CCCNC(=N)N)NC(=O)[C@H](CCC(N)=O)NC(=O)CCOCCOCCOCCOCCNC(=O)c1ccc(-c2c3ccc(=N)c(S(=O)(=O)O)c-3oc3c(S(=O)(=O)O)c(N)ccc23)c(C(=O)O)c1)C(=O)N1CCC[C@H]1C(=O)N[C@@H](CC(C)C)C(=O)N[C@@H](Cc1c[nH]cn1)C(=O)N[C@@H](CO)C(=O)N[C@@H](CCCNC(=N)N)C(=O)N[C@H](C(=O)N1CCC[C@H]1C(=O)N[C@@H](Cc1ccccc1)C(=O)N1CCC[C@H]1C(=O)O)C(C)C [ELA488]
Emax (apelin receptor [2]): 240.32 ± 27.91 ΔPWV | binding affinity fold lower than the unlabelled endogenous parent ligand (apelin receptor [3]): ~ 23 fold | mean fluorescence in renal blood vessels (apelin receptor [4]; [7]): 18869 ± 5968 grayscales | mean fluorescence in tubular structures of the renal cortex (apelin receptor [4]; [7]): 7392 ± 1338 grayscales | mean fluorescence in renal blood vessels in the presence of unlabelled parent ligand (apelin receptor [4]; [8]): 7946 ± 3656 grayscales | mean fluorescence in tubular structures of the renal cortex in the presence of unlabelled parent ligand (apelin receptor [4]; [8]): 2458 ± 801 grayscales | Emax [5]: 169693 ± 9461 RLU

CSCC[C@H](NC(=O)[C@H](CS)NC(=O)[C@H](CCCNC(=N)N)NC(=O)[C@H](CCCNC(=N)N)NC(=O)[C@H](CCC(N)=O)NC(=O)CCOCCOCCOCCOCCNC(=O)CCCCCC1(C)C(=CC=CC=CC2=[N+](CCCS(=O)(=O)[O-])c3ccc(S(=O)(=O)O)cc3C2(C)C)N(CCCS(=O)(=O)O)c2ccc(S(=O)(=O)O)cc21)C(=O)N1CCC[C@H]1C(=O)N[C@@H](CC(C)C)C(=O)N[C@@H](Cc1c[nH]cn1)C(=O)N[C@@H](CO)C(=O)N[C@@H](CCCNC(=N)N)C(=O)N[C@H](C(=O)N1CCC[C@H]1C(=O)N[C@@H](Cc1ccccc1)C(=O)N1CCC[C@H]1C(=O)O)C(C)C (stereo partly shown) [ELA647]
Emax (apelin receptor [2]): 185.23 ± 36.82 ΔPWV | binding affinity fold lower than the unlabelled endogenous parent ligand (apelin receptor [3]): ~ 58 fold | Emax [5]: 128992 ± 6218 RLU

CC(C)C[C@@H]1NC(=O)[C@H](CCCNC(=N)N)NC(=O)[C@@H]2CCCN2C(=O)[C@H](CCCNC(=N)N)NC(=O)[C@@H](NC(=O)[C@H](Cc2c[nH]cn2)NC(=O)[C@H](CCCCN)NC(=O)[C@@H]2CSSC[C@H](N)C(=O)N[C@@H](CCCNC(=N)N)C(=O)N3CCC[C@H]3C(=O)N[C@@H](CCCNC(=N)N)C(=O)N[C@@H](CC(C)C)C(=O)N2)CSSC[C@@H](C(=O)O)NC1=O [MM54] (H-CRPRLCKHCRPRLC-OH; disulfide 1-6, 9-14)
Ki (apelin receptor [1]): 5.75 µM

CCCC[C@H](NC(=O)[C@@H]1CCCN1C(=O)CNC(=O)[C@H](CCCCN)NC(=O)[C@H](Cc1c[nH]cn1)NC(=O)[C@H](CO)NC(=O)[C@H](CC(C)C)NC(=O)[C@H](CCCNC(=N)N)NC(=O)[C@@H]1CCCN1C(=O)[C@H](CCCNC(=N)N)NC(=O)[C@H](CCC(N)=O)NC(=O)CCOCCOCCOCCOCCNC(=O)CCCCCC1(C)C(=CC=CC=CC2=[N+](CCCS(=O)(=O)[O-])c3ccc(S(=O)(=O)O)cc3C2(C)C)N(CCCS(=O)(=O)O)c2ccc(S(=O)(=O)O)cc21)C(=O)N1CCC[C@H]1C(=O)N[C@@H](Cc1ccc(OCc2ccccc2)cc1)C(=O)O (stereo partly shown) [apelin647]
binding in wild-type CHO-K1 cells (apelin receptor [6]): 0.70 ± 0.45 mean fluorescence
